The data set is described as follows: in vitro. The following applies: rat, gh3-tre-luc cells.

Structures can show the parent of a compound that is named as a salt.

One may read the CC50 as the concentration at which the toxic effect on the cells reaches its halfway point. Read a high CC50 as lower toxicity to the cells. Consider `NCCCC[C@H](N[C@@H](CCc1ccccc1)C(=O)O)C(=O)N1CCC[C@H]1C(=O)O` [Lisinopril dihydrate], for which, for the setting “AC50 (uM) modified / 1000”, the CC50 at 24 h is over 20 µM.
`CCCC(=O)OC` [Methyl butyrate] had a CC50 at 24 h (AC50 (uM) modified / 1000) of over 90 µM.
Consider `NCc1ccccc1Sc1ccccc1CO` [Bipenamol], for which the CC50 at 24 h (AC50 (uM) modified / 1000) is over 50 µM.
The same measure, in the same setting: as for `O=C(CCCN1CCN2CCCC2C1)c1ccc(F)cc1` (stereo not drawn) [Azabuperone], the figure is over 50 µM.
Same read-out and setting: as for `CCCc1ccc(OC)cc1` [4-Propylanisole], the figure is over 90 µM; as for `CCOC(=O)Nc1ccc2c(c1)N(C(=O)CCN1CCOCC1)c1ccccc1S2` [Moricizine hydrochloride], over 20 µM; as for `CCCCCCCCOC(=O)c1ccc(C(=O)OCCCCCCCC)c(C(=O)OCCCCCCCC)c1` [Trioctyl trimellitate], over 90 µM.
Same read-out and setting: as for `O=C(c1ccccc1)c1ccc(O)c(O)c1O` [2,3,4-Trihydroxbenzophenone], the figure is 75 µM; as for `O=C(O)CCn1c2c(c3ccccc31)C[C@H](NS(=O)(=O)c1ccc(F)cc1)CC2` [Ramatroban], over 50 µM.
As to `CC(=O)C=Cc1ccccc1` [Methyl styryl ketone], the CC50 at 24 h (AC50 (uM) modified / 1000, Tox21_110001=Tox21_201502, viability, 1 nM T3 present, 24 h) was over 90 µM.
`Oc1ccc2c(c1)OCO2` [Sesamol]: the CC50 at 24 h (AC50 (uM) modified / 1000) is over 90 µM.
For `C=CCOc1nc(OCC=C)nc(OCC=C)n1` [2,4,6-Tris(allyloxy)-1,3,5-triazine], the CC50 at 24 h (AC50 (uM) modified / 1000) is over 90 µM.
For `CN(C(=O)CCCOc1ccc2[nH]c(=O)ccc2c1)C1CCCCC1` [Cilostamide], the CC50 at 24 h (AC50 (uM) modified / 1000) is over 50 µM.
Consider `Cc1cc(Cl)ccc1OC(C)C(=O)O` (stereo not drawn) [Mecoprop], for which, where the note is “AC50 (uM) modified / 1000”, the half-maximal cytotoxic concentration (CC50) at 24 h was over 90 µM.
For the setting “AC50 (uM) modified / 1000”, `OC(CCl)CCl` [1,3-Dichloro-2-propanol] gave a cytotoxic concentration (CC50) at 24 h of over 90 µM.
Still for that read-out and setting: the result for `OCC(S)CS` (stereo not drawn) [Dimercaprol] reads 12.5 µM; that for `CCOC(=O)C1CC(=O)C(=C(O)C2CC2)C(=O)C1` (stereo not drawn) [Trinexapac-ethyl], over 90 µM.
The same measure, in the same setting: the result for `COC(=O)/C=C\C(=O)O` [2-Butenedioic acid (2Z)-, monomethyl ester] reads over 90 µM; that for `C=CC1=C(C(=O)O)N2C(=O)[C@@H](NC(=O)/C(=N\O)c3csc(N)n3)[C@H]2SC1` [Cefdinir], over 50 µM.
The same measure, in the same setting: as for `O=C1CC[C@@H](C(=O)O)N1` [Pidolic acid], the figure is over 50 µM; as for `COc1nn(C(=O)NS(=O)(=O)c2ccccc2OC(F)(F)F)c(=O)n1C` [Flucarbazone-sodium], over 90 µM; as for `CCCCCCCC/C=C\CCCCCCCC(N)=O` [(9Z)-Octadec-9-enamide], over 90 µM.
Compound `CCCCCc1ccc(N)cc1` [4-Pentylaniline] gave a CC50 at 24 h (AC50 (uM) modified / 1000) of over 90 µM.
Same read-out and setting: as for `CC1CCCCC1NC(=O)Nc1ccccc1` (stereo not drawn) [Siduron], the figure is over 90 µM; as for `CC(C)[C@@H]1CC[C@@H](C)C[C@H]1OC(=O)c1ccccc1O` [Menthyl salicylate], over 50 µM.
Still for that read-out and setting: the result for `CC(=O)NCCO` [N-(2-Hydroxyethyl)acetamide] reads over 90 µM.
`CCCCCCCc1ccc(O)cc1` [4-Heptylphenol] came in with a CC50 at 24 h (AC50 (uM) modified / 1000, Tox21_110001=Tox21_301548, viability, 1 nM T3 present, 24 h) of over 90 µM.
In turn, `CC(C)(C)OC(=O)c1ccccc1C(=O)O` [tert-Butyl hydrogen phthalate] displayed a CC50 at 24 h (AC50 (uM) modified / 1000) of over 90 µM.
Regarding `CC(C)OC(=O)CCCCC(=O)OC(C)C` [Diisopropyl adipate], the CC50 at 24 h (AC50 (uM) modified / 1000) was over 90 µM.
Same read-out and setting: as for `CCC1Nc2cc(Cl)c(S(N)(=O)=O)cc2S(=O)(=O)N1` (stereo not drawn) [Ethiazide], the figure is over 50 µM; as for `Nc1ccccc1N` [1,2-Phenylenediamine dihydrochloride], over 90 µM.
The same measure, in the same setting: as for `CC=C(C)C(=O)OCCC(C)CCC=C(C)C` (stereo not drawn) [3,7-Dimethyloct-6-en-1-yl 2-methylbut-2-enoate], the figure is over 90 µM.
`COc1ccc2[nH]c([S+]([O-])Cc3ncc(C)c(OC)c3C)nc2c1` (stereo not drawn) [Omeprazole] yielded a CC50 at 24 h (AC50 (uM) modified / 1000) of over 90 µM.
Same read-out and setting: as for `CCCCOC(C)=O` [Butyl acetate], the figure is over 90 µM; as for `Oc1ccccc1` [Phenol], over 50 µM; as for `COc1nc(C)nc(NC(=O)NS(=O)(=O)c2ccccc2Cl)n1` [Chlorsulfuron], over 90 µM.
On the same count and under the same terms, the result for `CCn1cc[n+](C)c1C` [1-Ethyl-2,3-dimethylimidazolium bromide] reads over 90 µM; that for `CCCCCCCCCCCCCCCCCC(=O)OCCCCCCCCCCCCCC(C)C` [Isocetyl stearate], over 90 µM.
On the same count and under the same terms, the result for `Cc1cc(-n2c(=O)[nH]c(=O)n(C)c2=O)ccc1Oc1ccc(S(=O)(=O)C(F)(F)F)cc1` [Toltrazuril sulfone] reads over 50 µM; that for `CCCCCCCC#N` [Octanenitrile], over 90 µM; that for `CC(CNC1CCCCC1)OC(=O)c1ccccc1` (stereo not drawn) [Hexylcaine hydrochloride], over 20 µM.
As to `[N-]=[N+]=CC(=O)OC[C@H](N)C(=O)O` [Azaserine], for the setting “AC50 (uM) modified / 1000”, the cytotoxic concentration (CC50) at 24 h is over 50 µM.
The same measure, in the same setting: the result for `NP(N)(=O)NC(=O)c1ccc(F)cc1` [Flurofamide] reads over 50 µM; that for `CCCC[n+]1ccccc1C` [1-Butyl-2-methylpyridinium bromide], over 90 µM.
Same read-out and setting: as for `CC1CN(c2cc3c(cc2F)c(=O)c(C(=O)O)cn3-c2ccc(F)cc2F)CCN1` (stereo not drawn) [Temafloxacin], the figure is over 50 µM.
Same read-out and setting: as for `C[C@@H]1[C@H](O)[C@@H](C)/C=C/C=C/CC/C=C/C=C/C=C/C=C/[C@H](O[C@@H]2O[C@H](C)[C@@H](O)[C@H](N)[C@@H]2O)C[C@@H]2O[C@](O)(C[C@@H](O)[C@H](O)CC[C@@H](O)C[C@@H](O)C[C@@H](O)CC(=O)O[C@H]1C)C[C@H](O)[C@H]2C(=O)O` [Nystatin], the figure is over 50 µM; as for `C=CC(C)(CCC=C(C)C)OC(=O)C(C)C` (stereo not drawn) [Linalyl isobutyrate], over 90 µM; as for `CC(Oc1cccc(Cl)c1)C(=O)O` (stereo not drawn) [Cloprop], over 90 µM.
Where the note is “AC50 (uM) modified / 1000”, `C=CC(=O)OCCCCCCCCCC` [Decyl prop-2-enoate] returned a cytotoxic concentration (CC50) at 24 h of over 90 µM.
Same read-out and setting: as for `Cc1ccccc1CO[C@@H]1C[C@@]2(C(C)C)CC[C@]1(C)O2` (racemic) [Cinmethylin], the figure is over 90 µM; as for `O=C(O)CN(CC(=O)O)CC(=O)O` [Nitrilotriacetic acid], over 90 µM; as for `CC(=O)Oc1c(C)cc(OCC(O)CNC(C)C)c(C)c1C` (stereo not drawn) [Metipranolol], over 50 µM.
On the same count and under the same terms, as for `CC(=O)OC(C)(C)Cc1ccccc1` [Dimethylbenzylcarbinyl acetate], the figure is over 90 µM; as for `O=C(O)c1cccnc1` [Nicotinic acid], over 50 µM; as for `CCOc1ccccc1OCCN[C@H](C)Cc1ccc(OC)c(S(N)(=O)=O)c1` [Tamsulosin hydrochloride], over 50 µM.
Still for that read-out and setting: as for `CC1=C(C)C(=O)C(C(CCCCCC(=O)O)c2ccccc2)=C(C)C1=O` (racemic) [(+-)-7-(3,5,6-trimethyl-1,4-benzoquinon-2-yl)-7-phenylheptanoic acid], the figure is over 50 µM.
As to `O=P(O)(O)CN(CP(=O)(O)O)CP(=O)(O)O` [Aminotrimethylene phosphonic acid], the CC50 at 24 h (AC50 (uM) modified / 1000, Tox21_110001=Tox21_202753, viability, 1 nM T3 present, 24 h) is over 20 µM.
Take `C[C@@H](O)C(=O)O` [D-Lactic acid]: the 50% cytotoxic concentration (CC50) at 24 h (AC50 (uM) modified / 1000) is over 100 µM.
The same measure, in the same setting: the result for `CCOC(=O)C(SP(=S)(OC)OC)c1ccccc1` (stereo not drawn) [Phenthoate] reads over 90 µM; that for `CCOC(=O)CC(C)C` [Ethyl isovalerate], over 90 µM.
In the case of `Brc1ccc(Oc2ccc(Br)cc2Br)c(Br)c1` [2,2'4,4'-Tetrabromodiphenyl ether], it took 83.3 µM to reach half-maximal cytotoxicity (AC50 (uM) modified / 1000, Tox21_110001=Tox21_200327, viability, 1 nM T3 present, 24 h) (CC50 at 24 h).
In the case of `O=C(O)c1ccc(OCCCOc2ccc(C(=O)O)cc2)cc1` [1,3-Bis(4-carboxyphenoxy)propane], the CC50 at 24 h (AC50 (uM) modified / 1000) is over 50 µM.
The compound `CCN(CC)/[N+]([O-])=N/O` [1,1-Diethyl-2-hydroxy-2-nitrosohydrazine diethylamine] had a CC50 at 24 h (AC50 (uM) modified / 1000) of over 50 µM.
The same measure, in the same setting: as for `O=C(C(Cl)(Cl)Cl)C(Cl)(Cl)Cl` [Hexachloroacetone], the figure is over 90 µM; as for `CCCCCCCCCCCCCCCCCC(=O)OCC(CC)CCCC` (stereo not drawn) [2-Ethylhexyl octadecanoate], over 90 µM; as for `N#CCCCC(C#N)CCC#N` (stereo not drawn) [1,3,6-Hexanetricarbonitrile], over 90 µM.
Regarding `CN1CCN(Cc2cc(-c3ccc4[nH]c(=O)oc4c3)co2)[C@@H](c2ccc(F)cc2)C1` [AVE8488], it took 24.8 µM to reach half-maximal cytotoxicity (AC50 (uM) modified / 1000) (CC50 at 24 h).
The same measure, in the same setting: the result for `CCOC(=N)CC(=O)OCC` [Ethyl 3-ethoxy-3-iminopropionate hydrochloride] reads over 90 µM.
Still for that read-out and setting: as for `CCC(C)(C)C` [2,2-Dimethylbutane], the figure is over 100 µM; as for `Cc1ccc2c(c1)C(=O)OC2=O` [4-Methylphthalic anhydride], over 90 µM; as for `Clc1ccc([C@@H]2C[C@H]3CC[C@@H]2N3)cn1` [(+)-Epibatidine hydrochloride], over 90 µM.
The same measure, in the same setting: the result for `Cc1cc(O)ccc1N` [4-Amino-m-cresol] reads 29.9 µM; that for `CO[C@]12CC[C@@]3(C[C@@H]1[C@](C)(O)C(C)(C)C)[C@H]1Cc4ccc(O)c5c4[C@@]3(CCN1CC1CC1)[C@H]2O5` [Buprenorphine hydrochloride], 23.1 µM; that for `C1COCCN1` [Morpholine], over 100 µM.
On to `Cc1cccc2c1cc1ccc3cccc4ccc2c1c34` [7-Methylbenzo(a)pyrene], for which the half-maximal cytotoxic concentration (CC50) at 24 h (AC50 (uM) modified / 1000) is over 90 µM.
Same read-out and setting: the result for `CCC(=O)/C=C/c1ccc(OC)cc1` [1-(4-Methoxyphenyl)-1-pentene-3-one] reads over 90 µM; that for `CCOC(=O)CC(=O)c1cc(F)c(Cl)nc1Cl` [Ethyl 2,6-dichloro-5-fluoro-?-oxo-3-pyridinepropionate], over 90 µM.
`CCNc1nc(NC(C)C)nc(OC)n1` [Atraton] registered a CC50 at 24 h (AC50 (uM) modified / 1000) of over 90 µM.

(Values after paper PMC6792352, “Limited Chemical Structural Diversity Found to Modulate Thyroid Hormone Receptor in the Tox21 Chemical Library” (Environmental Health Perspectives, 2019).)
